Source: patent US20230126893A1, “[(1,4,5-TRISUBSTITUTED-1H-PYRAZOL-3-YL)SULFANYL]ACETIC ACID DERIVATIVES, SALTS THEREOF, AND USE THEREOF AS ACTIVE HERBICIDAL INGREDIENTS” (BAYER AKTIENGESELLSCHAFT, priority 2020, published 2023)

Assays:
Type in all cases: in vivo
[1] = system: Tripleurospermum inodorum; experiment: Post-emergence herbicidal effect against MATIN; settings: 1280 g/ha, visual assessment about 3 weeks after treatment, 100% = plants have died, 0% = like control plants
Protocol: (§1) [table] 2. Post-emergence herbicidal effect and crop plant compatibility Seeds of monocotyledonous and dicotyledonous weed and crop plants are laid out in sandy loam soil in wood-fibre pots, covered with soil and cultivated in a greenhouse under good growth conditions. 2 to 3 weeks after sowing, the test plants are treated at the one-leaf stage. The compounds of the invention, formulated in the form of wettable powders (WP) or as emulsion concentrates (EC), are then sprayed onto the green parts of the plants as aqueous suspension or emulsion at a water application rate equating to 600 to 800 l/ha with addition of 0.2% wetting agent. After the test plants have been left to stand in the greenhouse under optimal growth conditions for about 3 weeks, the action of the preparations is assessed visually in comparison to untreated controls (herbicidal action in percent (%): 100% activity=the plants have died, 0% activity=like control plants).

[2] = system: Tripleurospermum inodorum; experiment: Pre-emergence herbicidal effect against MATIN; settings: 1280 g/ha, visual score after 3 weeks, 100% = plants have died, 0% = like control plants
From the text: (§2) 1. Pre-emergence herbicidal effect and crop plant compatibility Seeds of monocotyledonous and dicotyledonous weed plants and crop plants are laid out in sandy loam soil in wood-fibre pots and covered with soil. The compounds of the invention, formulated in the form of wettable powders (WP) or as emulsion concentrates (EC), are then applied to the surface of the covering soil as aqueous suspension or emulsion at a water application rate equating to 600 to 800 L/ha with addition of 0.2% wetting agent. After the treatment, the pots are placed in a greenhouse and kept under good growth conditions for the trial plants. The damage to the test plants is scored visually after a test period of 3 weeks by comparison with untreated controls (herbicidal activity in percent (%): 100% activity=the plants have died, 0% activity=like control plants). [table]

Stellaria media [3] = experiment: Pre-emergence herbicidal effect against STEME; settings: 1280 g/ha, visual score after 3 weeks, 100% = plants have died, 0% = like control plants
From the text: as §2

Poa annua [4] = experiment: Post-emergence herbicidal effect against POAAN; settings: 1280 g/ha, visual assessment about 3 weeks after treatment, 100% = plants have died, 0% = like control plants
Protocol: as §1

Amaranthus retroflexus [5] = experiment: Pre-emergence herbicidal effect against AMARE; settings: 1280 g/ha, visual score after 3 weeks, 100% = plants have died, 0% = like control plants
From the text: as §2

Digitaria sanguinalis [6] = experiment: Pre-emergence herbicidal effect against DIGSA; settings: 1280 g/ha, visual score after 3 weeks, 100% = plants have died, 0% = like control plants
From the text: as §2

Alopecurus myosuroides [7] = experiment: Pre-emergence herbicidal effect against ALOMY; settings: 1280 g/ha, visual score after 3 weeks, 100% = plants have died, 0% = like control plants
From the text: as §2

Echinochloa crus-galli [8] = experiment: Pre-emergence herbicidal effect against ECHCG; settings: 1280 g/ha, visual score after 3 weeks, 100% = plants have died, 0% = like control plants
From the text: as §2

Poa annua [9] = experiment: Pre-emergence herbicidal effect against POAAN; settings: 1280 g/ha, visual score after 3 weeks, 100% = plants have died, 0% = like control plants
From the text: as §2

Stellaria media [10] = experiment: Post-emergence herbicidal effect against STEME; settings: 1280 g/ha, visual assessment about 3 weeks after treatment, 100% = plants have died, 0% = like control plants
Protocol: as §1

Veronica persica [11] = experiment: Post-emergence herbicidal effect against VERPE; settings: 1280 g/ha, visual assessment about 3 weeks after treatment, 100% = plants have died, 0% = like control plants
Protocol: as §1

Amaranthus retroflexus [12] = experiment: Post-emergence herbicidal effect against AMARE; settings: 1280 g/ha, visual assessment about 3 weeks after treatment, 100% = plants have died, 0% = like control plants
Protocol: as §1

Lolium rigidum = experiment: Pre-emergence herbicidal effect against LOLRI; settings: 1280 g/ha, visual score after 3 weeks, 100% = plants have died, 0% = like control plants
From the text: as §2

Setaria viridis = experiment: Pre-emergence herbicidal effect against SETVI; settings: 1280 g/ha, visual score after 3 weeks, 100% = plants have died, 0% = like control plants
From the text: as §2

Alopecurus myosuroides [13] = experiment: Post-emergence herbicidal effect against ALOMY; settings: 1280 g/ha, visual score after about 3 weeks, 100% = plants have died, 0% = like control plants
Protocol: as §1

Veronica persica [14] = experiment: Pre-emergence herbicidal effect against VERPE; settings: 1280 g/ha, visual score after 3 weeks, 100% = plants have died, 0% = like control plants
From the text: as §2

Digitaria sanguinalis [15] = experiment: Post-emergence herbicidal effect against DIGSA; settings: 1280 g/ha, visual score after about 3 weeks, 100% = plants have died, 0% = like control plants
Protocol: as §1

Bassia scoparia = experiment: Post-emergence herbicidal effect against KCHSC; settings: 1280 g/ha, visual assessment about 3 weeks after treatment, 100% = plants have died, 0% = like control plants
Protocol: as §1

Abutylon threophrasti = experiment: Post-emergence herbicidal effect against ABUTH; settings: 1280 g/ha, visual assessment about 3 weeks after treatment, 100% = plants have died, 0% = like control plants
Protocol: as §1

Echinochloa crus-galli [16] = experiment: Post-emergence herbicidal effect against ECHCG; settings: 1280 g/ha, visual score after about 3 weeks, 100% = plants have died, 0% = like control plants
Protocol: as §1

SMILES | Post-emergence action against MATIN [1] [%] | Pre-emergence action against MATIN [2] [%] | Pre-emergence action against STEME (Stellaria media [3]) [%] | Post-emergence action against POAAN (Poa annua [4]) [%] | Pre-emergence action against AMARE (Amaranthus retroflexus [5]) [%] | Pre-emergence action against DIGSA (Digitaria sanguinalis [6]) [%] | Pre-emergence action against ALOMY (Alopecurus myosuroides [7]) [%] | Pre-emergence action against ECHCG (Echinochloa crus-galli [8]) [%] | Pre-emergence action against POAAN (Poa annua [9]) [%] | Post-emergence action against STEME (Stellaria media [10]) [%] | Post-emergence action against VERPE (Veronica persica [11]) [%] | Post-emergence action against AMARE (Amaranthus retroflexus [12]) [%] | Pre-emergence action against LOLRI (Lolium rigidum) [%] | Pre-emergence action against SETVI (Setaria viridis) [%] | Post-emergence action against ALOMY (Alopecurus myosuroides [13]) [%] | Pre-emergence action against VERPE (Veronica persica [14]) [%] | Post-emergence action against DIGSA (Digitaria sanguinalis [15]) [%] | Post-emergence action against KCHSC (Bassia scoparia) [%] | Post-emergence action against ABUTH (Abutylon threophrasti) [%] | Post-emergence action against ECHCG (Echinochloa crus-galli [16]) [%]
CCOC(=O)CSc1nn(-c2cccc(F)c2F)c(-c2ccccc2)c1Br [Example I-004] | 100 | 100 | 100 | 100 | 100 | 100 | 90 | 90 | 100 | 90 | 90 | 90 | 100 | 100 | 100 | 100 |  |  |  | 
O=C(O)CSc1nn(-c2ccccc2F)c(-c2ccc(F)c(F)c2)c1Br [Example I-005, {[4-Bromo-5-(3,4-difluorophenyl)-1-(2-fluorophenyl)-1H-pyrazol-3-yl]sulfanyl}acetic acid] | 100 | 100 | 100 |  | 100 | 100 | 90 |  | 100 | 100 | 90 | 90 | 100 | 100 | 100 | 100 | 100 |  |  | 
O=C(O)CSc1nn(-c2cccc(F)c2F)c(-c2ccccc2)c1Br [Example I-006] | 100 | 100 | 90 | 100 | 100 | 100 | 90 | 90 | 100 | 100 | 90 | 100 | 90 | 100 | 100 | 100 | 100 | 90 |  | 
O=C(O)CSc1nn(-c2ccccc2F)c(-c2cc(F)cc(Cl)c2)c1Br [Example I-009] | 100 | 100 | 100 | 100 | 100 | 100 | 90 | 90 | 100 | 100 | 90 | 100 | 100 | 100 |  | 90 |  | 100 | 90 | 
CCOC(=O)C[S+]([O-])c1nn(-c2cccc(F)c2F)c(-c2ccccc2)c1Br (stereo not drawn) [Example I-010] | 100 | 100 | 100 | 100 | 100 | 100 | 100 | 100 | 100 | 90 | 90 | 90 | 100 | 100 | 100 | 100 | 90 | 90 | 90 | 100
CC(Sc1nn(-c2ccccc2F)c(-c2ccc(F)c(F)c2)c1Br)C(=O)O (stereo not drawn) [Example I-022] | 100 | 90 | 100 | 100 | 90 | 100 | 90 | 90 | 90 | 90 | 100 |  | 100 | 100 | 100 | 100 | 90 | 90 | 90 | 100
CCOC(=O)CSc1nn(-c2ccccc2F)c(-c2sncc2C)c1Br [Example V-001] |  | 90 |  |  | 100 | 90 |  |  | 90 |  | 90 | 100 |  |  |  |  |  |  |  | 
CCOC(=O)CSc1nn(-c2ccccc2F)c(-c2cc(Cl)cs2)c1Br [IV-001] |  | 90 | 100 |  | 100 |  |  |  | 90 |  | 90 | 90 | 90 |  |  | 90 |  |  |  | 
CCOC(=O)CSc1nn(-c2ccccc2F)c(-c2cnccn2)c1Br [VI-001] | 100 | 90 | 90 | 100 |  | 90 |  |  | 100 |  | 90 | 90 |  |  | 90 |  |  |  | 90 | 
